Results from EP3322687B1, “2-BENZYL-INDANONE COMPOUNDS AS ANTICANCER AGENT AND A PROCESS FOR PREPARATION THEREOF” (Council of Scientific and Industrial Research, priority 2015, dated 2017).

Assays:
Experiment in all cases: Sulforhodamine B cytotoxicity assay
Assay type in all cases: cell-based
A549 (Lung) = details: Homo sapiens, A549, 48 h, read-out: Human cancer cell lines IC50 A549 (Lung)
Method: (§1) The benzyl compounds were evaluated by Sulforhodamine B Assay as per reported method [Skehan etal., J. Natl. Cancer Inst.1990, 82, 1107]. The human cancer cell lines procured from National Cancer Institute, Frederick, U. S. A. were used in present study. Cells were grown in tissue culture flasks in complete growth medium (RPMI-1640 medium with 2 mM glutamine, pH 7.4 supplemented with 10% fetal bovine serum, 100 µg/ml streptomycin and 100 units/ml penicillin) in a carbon dioxide incubator (37°C, 5% CO2, 90% RH). The cells at subconfluent stage were harvested from the flask by treatment with trypsin (0.05% in PBS (pH 7.4) containing 0.02% EDTA). Cells with viability of more than 98%, as determined by trypan blue exclusion, were used for determination of cytotoxicity. The cell suspension required concentration of cells was prepared in complete growth medium. Stock solution of 2x10^-2 M of compounds were prepared in DMSO and further dilution was carried out complete growth medium containing 50µg/ml of gentamycin to obtained working test solution of required concentration. In vitro cytotoxicity against various human cancer cell lines was determined using 96-well cell culture plates. The 100µl of cell suspension was added to each well of the 96-well cell culture plates. The cells were allowed to grow in CO2 incubator (37°C, 5% CO2, 90% RH) for 24 hours. The test materials in complete growth medium (100 µl) were added after 24 hours incubation to the wells containing cell suspension. The plates were further incubated for 48 hours (37°C in an atmosphere of 5% CO2 and 90% relative humidity) in a carbon dioxide incubator after addition of test material and then the cell growth was stopped by gently layering trichloroacetic acid (50% TCA, 50 µl) on top of the medium in all the wells. The plates were incubated at 4°C for one hour to fix the cells attached to the bottom of the wells. The liquid of all the wells was gently pipetted out and discarded. The plates were washed five times with distilled water to remove TCA, growth medium low molecular weight metabolites, serum proteins etc. and air - dried. Cell growth was measured by staining with sulforhodamine B dye. The adsorbed dye was dissolved in Tris-HCl Buffer (100 µl/well, 0.01M, pH 10.4) and plates were gently stirred for 10 minutes on a mechanical stirrer. The optical density (OD) was recorded on ELISA reader at 540nm. Paclitaxel (Taxol), and 5-Fluorouracil were used as positive controls (Standard drugs).

HCT-116 (Colon) = details: Homo sapiens, HCT-116, 48 h, read-out: Human cancer cell lines IC50 HCT-116 (Colon)
Method: as §1

T-47D (Breast cancer) = details: Homo sapiens, T47D, 48 h, read-out: Human cancer cell lines IC50 T-47D (Breast cancer)
Method: as §1

In the case of COc1cc(C2c3c(cc(OC)c(OC)c3OC)C(=O)C2Cc2ccc3c(c2)OCO3)cc(OC)c1OC (stereo not drawn) [Compound 2, 2-(3",4"-methylenedioxybenzyl)-3-(3',4',5'-trimethoxyphenyl)-4,5,6-trimethoxy-indan-1-one], the IC50 (A549 (Lung)) is reported as 2000 nM, the IC50 (HCT-116 (Colon)) is reported as 3000 nM and the IC50 (T-47D (Breast cancer)) is reported as < 1000 nM.
